Data taken from patent US12636385B2, “Selective ligands for tau aggregates” (Sentonix, Inc., priority 2018, dated 2026).

Tests used:
0N4R Tau fibrils [1] = target: T1, 0N4R Tau fibrils (Homo sapiens, UniProt P10636); assay: ^3H-THK5117 competition binding to tau fibrils in vitro; conditions: for Selectivity for tau relative to Aβ: calculated from [^3H]-THK5117 tau and [^3H]-AZD2184 Aβ assays
T1 construct: made in house
Protocol: Preparation of recombinant 0N4R Tau fibrils was performed as previously described in Morozova, O. A., Biochemistry (2013), Vol., 52(40), pages 6960-6967. Competition binding experiments to 0N4R Tau fibrils were performed by incubating increasing concentrations [10^−10-10^−6 M] of the Example compounds of the invention, or the known tau specific ligand PBB3 (PBB3 was synthesized as previously described in M. Maruyama, et al, Neuron 2013, 79, 1094-1108) or MK6240 (Novandi Chemistry AB), in the presence of 3 nM of the known tau ligand [^3H]-THK5117 (Novandi Chemistry) and 0.2 mM 0N4R tau fibrils in binding buffer (50 mM Tris-HCl, pH 7.4, 0.1% BSA) for 1 h in the dark, and at 22° C. The incubation was terminated by filtration through a Whatman GF/B glass filter (Whatman International, Kent, UK) using a Brandel cell harvester. The filter was then washed rapidly four times with 3 mL of ice-cold wash buffer (5 mM Tris-HCl, 0.25 mM NaCl, 5% EtOH), and equilibrated for 1 h in scintillation vials containing 5 mL of Ultima Gold scintillation fluid before being analysed using a Liquid Scintillation Analyzer.
The results are shown in Table 2 in the column labeled “Tau IC50”.
Relative selectivity for tau compared to Aβ for the exemplified compounds was calculated using the results for the [^3H]-THK5117 tau and [^3H]-AZD2184 Aβ assays described above. The calculated results are shown in Table 2 in the column labeled “Selectivity for tau relative to Aβ”.

Aβ(1-42) amyloid fibrils = target: T2, Aβ(1-42) amyloid fibrils (Homo sapiens, UniProt P05067); assay: ^3H-AZD2184 competition binding to Aβ(1-42) fibrils in vitro; conditions: [^3H]-AZD2184, Aβ(1-42) amyloid fibrils; average if run more than once
T2 construct: Aβ(1-42) amyloid fibrils
Protocol: Competition binding experiments to Aβ(1-42) amyloid fibrils were performed as previously described in Jureus, A., et al, Journal of Neurochemistry (2010), Vol. 114, pages 784-794 for the Example compounds of the invention indicated in Table 2, or the known tau specific ligand PBB3 (PBB3 was synthesized as previously described in M. Maruyama, et al, Neuron 2013, 79, 1094-1108).
The results are shown in Table 2 in the column labeled “Aβ IC50”.

[2] = Rat brain cassette exposure study; type: in vivo, Sprague Dawley rat; conditions: intravenous cassette dosing
Protocol: The in vivo pharmacokinetic characteristics of the example compounds of the invention were compared directly with the known beta-amyloid specific ligand AZD2184 (Johnson, A. E., et al, Journal of Neurochemistry (2009), Vol. 108, pages 1177-1186). Rat brain exposure to three compounds of the invention and AZD2184 was measured by intravenous cassette dosing three test compound: Example Compound 43, Example Compound 47 and Example Compound 48; and AZD2184 (Novandi Chemistry) (concentration of 0.25 μmol/mL each) using the procedure previously described in Johnson, A. E., et al, Journal of Neurochemistry (2009), Vol. 108, pages 1177-1186. 6 male Sprague Dawley rat were used in the experiments, three rats per time point (2 min and 30 min).

0N4R Tau fibrils [3] = target: T1, 0N4R Tau fibrils; assay: In vitro competitive binding to 0N4R tau fibrils in the presence of [^3H]-Example Compound 68 (FIG. 1)
tau plaques = assay: Autoradiography on brain sections from CBD and PSP patients; type: binding, human; conditions: 3 nM radiotracer, with or without 1 μM unlabeled compound; compared with antibody AT8
Protocol: To examine binding of the example compounds of the present invention to tau plaques in vitro, autoradiography was carried out on brain sections from corticobasal degeneration (CBD) and progressive supranuclear palsy (PSP) patients incubated with [^3H]-Example Compound 72 or [^3H]-Example Compound 48 in the presence or absence of unlabeled Example Compound […] (1 μM) or unlabeled Example Compound 48 (1 μM), respectively. The experiment was performed as previously described in Johnson, A. E., et al, Journal of Neurochemistry (2009), Vol. 108, pages 1177-1186, but using post mortem cortical samples from corticobasal degeneration (CBD) and progressive supranuclear palsy (PSP) patients instead of from Alzheimer's disease patients.
Briefly, brain sections from the cortical samples were incubated for 30 min at 22° C. in 50 mN Tris buffer (pH 7.4) together with 3 nM [^3H]-Example Compound 72 or 3 nM [^3H]-Example Compound 48 in the presence of absence of on unlabeled Example Compound 72 (1 μM) or unlabeled Example Compound 48 (1 μM), respectively. The sections were then washed (3×10 min) in Tris buffer (1° C.) followed by a rinse in deionized water (1° C.) and air-dried at 22° C. in front of a fan. Binding was then measured and analysed as described in Johnson, A. E., et al.
The tau pathology was confirmed on adjacent brain sections by immunohisto-chemistry (IHC) using Phospho-Tau (Ser202, Thr205) Monoclonal Antibody (AT8) as previously as described in Biernat, J., et al, EMBO J. (1992) Vol. 4, pages 1593-1597. AT8 was obtained from Thermo Fisher Scientific (Phospho-PHF-Tau, Thermo Ficher Scientific, Catalog No. MN1020, Stock cone: 0.2 mg/ml, Working solution: 1/100).

[4] = 3 nM [^3H]-THK5117, recombinant 0N4R tau fibrils, average if run more than once

T1 sequence (P10636 1-383 isoform P10636-6): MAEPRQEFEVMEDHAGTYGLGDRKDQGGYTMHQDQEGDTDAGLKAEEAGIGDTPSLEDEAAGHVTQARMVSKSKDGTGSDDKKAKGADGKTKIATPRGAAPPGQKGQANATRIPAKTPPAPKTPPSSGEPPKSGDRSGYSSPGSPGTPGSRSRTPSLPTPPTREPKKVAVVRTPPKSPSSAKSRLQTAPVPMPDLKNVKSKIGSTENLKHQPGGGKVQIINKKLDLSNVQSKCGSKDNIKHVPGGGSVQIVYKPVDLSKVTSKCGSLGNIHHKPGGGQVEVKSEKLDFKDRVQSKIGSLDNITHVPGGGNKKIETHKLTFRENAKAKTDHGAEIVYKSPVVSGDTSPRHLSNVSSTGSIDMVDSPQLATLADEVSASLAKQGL
T2 sequence (P05067 672-713): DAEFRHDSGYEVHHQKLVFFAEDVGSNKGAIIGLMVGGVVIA
Sequence of tau plaques (P10636 561-708 limits assumed): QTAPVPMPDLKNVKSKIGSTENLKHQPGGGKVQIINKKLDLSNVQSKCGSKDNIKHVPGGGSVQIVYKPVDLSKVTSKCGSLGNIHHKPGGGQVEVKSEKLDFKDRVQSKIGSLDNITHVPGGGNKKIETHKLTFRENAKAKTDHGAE

| IC50 (0N4R Tau fibrils [1]; [4]) [nM] | Selectivity for tau relative to Aβ (0N4R Tau fibrils [1]) | IC50 (Aβ(1-42) amyloid fibrils) [nM] | Molecule | other results |
| --- | --- | --- | --- | --- |
| 4 | 18 | 72 | NC(=O)c1ccc2nc(-c3cnc(N4CCC(CCF)CC4)nc3)sc2c1 [Compound 43] |  |
| 9 | 4.7 | 42 | OCC1CCN(c2ccc(-c3cc4ccccc4o3)c(F)n2)CC1 [Compound 45] |  |
| 6 | 8.8 | 53 | OCCC1CCN(c2ccc(-c3cc4ccccc4o3)c(F)n2)CC1 [Compound 46] |  |
| 2 | 17 | 33 | COc1ccc2[nH]c(-c3ccc(N4CCC(CO)CC4)nc3F)cc2c1 [Compound 47] |  |
| 5 | 37 | 187 | OCC1CCN(c2ccc(-c3cc4cc(O)ccc4[nH]3)c(F)n2)CC1 [Compound 48] |  |
| 49 | 1.7 | 84 | FCCC1CCN(c2ncc(-c3cn4ccccc4n3)cn2)CC1 [Compound 52] |  |
| 14 | 2.6 | 37 | COc1ccc2nc(-c3cnc(N4CCC(CCF)CC4)nc3)cn2c1 [Compound 53] |  |
| 2 | 1.5 | 3 | OCC1CCN(c2ccc(-c3nc4ccc(OCCF)cc4s3)cn2)CC1 [Compound 56] |  |
| 12 | 25 | 302 | OCC1CCN(c2ncc(-c3nc4ccc(O)cc4s3)cn2)CC1 [Compound 57] |  |
| 6 | 6.2 | 37 | OCC1CCN(c2ncc(-c3nc4ccc(OCCF)cc4s3)cn2)CC1 [Compound 58] |  |
| 11 | 2.5 | 28 | O=C(NCCO)c1ccc2nc(-c3cnc(N4CCC(CCF)CC4)nc3)sc2c1 [Compound 60] |  |
| 22 | 0.4 | 9 | OCC1CCN(c2ccc(-c3nc4ccc(OCCF)cc4o3)cn2)CC1 [Compound 62, (1-{5-[6-(2-Fluoroethoxy)-1,3-benzoxazol-2-yl]pyridin-2-yl}piperidin-4-yl)methanol] |  |
| 2 | 22 | 44 | CCOC(=O)C1CCN(c2ccc(-c3cc4cc(O)ccc4[nH]3)c(F)n2)CC1 [Compound 65] |  |
| 21 | 13 | 272 | NC(=O)C1CCN(c2ccc(-c3cc4cc(O)ccc4[nH]3)c(F)n2)CC1 [Compound 66] |  |
| 4 | 8 | 32 | COC(=O)C1CCN(c2ccc(-c3cc4cc(O)ccc4[nH]3)c(F)n2)CC1 [Compound 67] |  |
| 7 | 10 | 72 | COc1ccc2[nH]c(-c3ccc(N4CCC(C(N)=O)CC4)nc3F)cc2c1 [Compound 68] |  |
| 10 | 17 | 169 | Oc1ccc2[nH]c(-c3cnc(N4CCC(CF)CC4)nc3)cc2c1 [Compound 69, 2-{2-[4-(Fluoromethyl)piperidin-1-yl]pyrimidin-5-yl}-1H-indol-5-ol] |  |
| 16 | 7.1 | 114 | COc1ccc2[nH]c(-c3ccc(N4CCC(C(N)=O)CC4)nc3)cc2c1 [Compound 71, 1-[5-(5-Methoxy-1H-indol-2-yl)pyridin-2-yl]piperidine-4-carboxamide] |  |
| 7 | 6 | 42 | OCC1CCN(c2ncc(-c3cc4cc(OCCF)ccc4[nH]3)cn2)CC1 [Compound 72, (1-{5-[5-(2-Fluoroethoxy)-1H-indol-2-yl]pyrimidin-2-yl}piperidin-4-yl)methanol] |  |
| 9 | 36 | 322 | COc1ncc2cc(-c3ccc(N4CCC(CO)CC4)nc3F)[nH]c2n1 [Compound 76, [1-(6-Fluoro-5-{2-methoxy-7H-pyrrolo[2,3-d]pyrimidin-6-yl}pyridin-2-yl)piperidin-4-yl]methanol] |  |
|  |  |  | COc1ccc2[nH]c(-c3ccc(N4CCC(CO)CC4)nc3F)cc2c1 [Example Compound 47, {1-[6-Fluoro-5-(5-methoxy-1H-indol-2-yl)pyridin-2-yl]piperidin-4-yl}methanol] | clearance from normal rat brain tissue ([2]; 2 min and 30 min): rapidly cleared; half-life ([2]; male, Sprague Dawley, rat, brain, samples at 2 min and 30 min, read-out: calculated half-life (t1/2) in rat brain tissue): 15.8 min |
|  |  |  | COc1ccc2[nH]c(-c3ccc(N4CCC(C(N)=O)CC4)nc3F)cc2c1 [Example Compound 68, 1-[6-Fluoro-5-(5-methoxy-1H-indol-2-yl)pyridin-2-yl]piperidine-4-carboxamide] | tau binding site shared (competition with [^3H]-Example Compound 68) (0N4R Tau fibrils [3]): share the same binding site |
| > 1000 |  |  | Nc1c(F)ccc2cnc(-n3ccc4ccncc43)cc12 [MK-6240, reference compound] | Tau IC50 (0N4R Tau fibrils [1]; [4]): inactive; tau binding site shared (competition with [^3H]-Example Compound 68) (0N4R Tau fibrils [3]): does not share the same binding site |
|  | 4 |  | CNc1ccc(/C=C/C=C/c2nc3ccc(O)cc3s2)cn1 [PBB3, reference compound] | tau binding site shared (competition with [^3H]-Example Compound 68) (0N4R Tau fibrils [3]): share the same binding site |
|  |  |  | [^3H] labeled 2-(2-fluoro-6-{4-[hydroxymethyl]piperidin-1-yl}pyridin-3-yl)-1H-indol-5-ol [[^3H]-Example Compound 48] | radiotracer binding in CBD brain tissue (tau plaques): displaceable binding in CBD brain tissue that correlates with the tau-specific antibody AT8; radiotracer binding in PSP brain tissue (tau plaques): displaceable binding in PSP brain tissue that correlates with the tau-specific antibody AT8 |
|  |  |  | [^3H] labeled (1-{5-[5-(2-Fluoroethoxy)-1H-indol-2-yl]pyrimidin-2-yl}piperidin-4-yl)methanol [[^3H]-Example Compound 72] | radiotracer binding in CBD brain tissue (tau plaques): displaceable binding in CBD brain tissue that correlate with tau-specific antibody AT8; radiotracer binding in PSP brain tissue (tau plaques): displaceable binding in PSP brain tissue that correlate with tau-specific antibody AT8 |
